The source of these data is ChEMBL document CHEMBL4002627, “Quinolidene based monocarbonyl curcumin analogues as promising antimycobacterial agents: Synthesis and molecular docking study” (Bioorg Med Chem Lett, 2017).

Data set [1] relates to Mycobacterium tuberculosis. Briefly: Antimycobacterial activity against dormant state of Mycobacterium tuberculosis H37Ra by two fold dilution method. In kind it is functional.
The test system of data set [2] is Mycobacterium tuberculosis. Briefly: Antimycobacterial activity against dormant state of Mycobacterium tuberculosis H37Ra assessed as growth inhibition at 30 ug/ml after 12 days by XTT reduction menadione assay relative to control. The format is functional. The conditions noted are these: 288 h, read-out: GI. In general terms: Formazan colour is commonly taken as a measure of viable cells.

Data set [3] relates to Mycobacterium tuberculosis. The experiment in a line: Antimycobacterial activity against dormant state of Mycobacterium tuberculosis H37Ra assessed as growth inhibition at 10 ug/ml after 12 days by XTT reduction menadione assay relative to control. The format is functional. The conditions noted are these: 288 h, read-out: GI.
The subject of data set [4] is Mycobacterium tuberculosis. The experiment in a line: Antimycobacterial activity against dormant state of Mycobacterium tuberculosis H37Ra assessed as growth inhibition at 3 ug/ml after 12 days by XTT reduction menadione assay relative to control. The format is functional. The conditions noted are these: 288 h, read-out: GI.
Data set [5] is described as follows: Cytotoxicity against human MCF7 cells assessed as growth inhibition at 30 ug/ml after 48 hrs by MTT assay relative to control. The format is cell-based. The conditions noted are these: read-out: GI.
A short description of data set [6]: Cytotoxicity against human MCF7 cells assessed as growth inhibition at 10 ug/ml after 48 hrs by MTT assay relative to control. The format is cell-based. The conditions noted are these: read-out: GI.
A short description of data set [7]: Cytotoxicity against human MCF7 cells assessed as growth inhibition at 3 ug/ml after 48 hrs by MTT assay relative to control. The format is cell-based. The conditions noted are these: read-out: GI.
A short description of data set [8]: Cytotoxicity against human A549 cells assessed as growth inhibition at 30 ug/ml after 48 hrs by MTT assay relative to control. The format is cell-based. The conditions noted are these: read-out: GI.
A short description of data set [9]: Cytotoxicity against human A549 cells assessed as growth inhibition at 10 ug/ml after 48 hrs by MTT assay relative to control. The format is cell-based. To be noted: read-out: GI.
A short description of data set [10]: Cytotoxicity against human A549 cells assessed as growth inhibition at 3 ug/ml after 48 hrs by MTT assay relative to control. In kind it is cell-based. To be noted: read-out: GI.
Data set [11] is described as follows: Cytotoxicity against human HCT116 cells assessed as growth inhibition at 30 ug/ml after 48 hrs by MTT assay relative to control. In kind it is cell-based, HCT-116. To be noted: read-out: GI.
Data set [12] is described as follows: Cytotoxicity against human HCT116 cells assessed as growth inhibition at 10 ug/ml after 48 hrs by MTT assay relative to control. In kind it is cell-based, HCT-116. To be noted: read-out: GI.
The nature of data set [13]: Cytotoxicity against human HCT116 cells assessed as growth inhibition at 3 ug/ml after 48 hrs by MTT assay relative to control. The format is cell-based, HCT-116. To be noted: read-out: GI.
Data set [14] relates to Staphylococcus aureus. Briefly: Antibacterial activity against Staphylococcus aureus ATCC 29213 after 12 hrs. In kind it is functional. The conditions noted are these: ATCC 29213, 12 h.

In brackets after ≈: the same amount, converted by molar mass.

What is called MIC50 is the lowest concentration that inhibits either 50% of growth or 50% of the strains tested, depending on the study. A higher MIC50 goes with lower susceptibility. The MIC90 is an inhibitory concentration at the 90% level, which refers to growth in some studies and to a panel of isolates in others. Low values mean higher susceptibility, high ones lower susceptibility. For the molecule `O=C1/C(=C/c2cc3cc(Cl)ccc3nc2Cl)CNC/C1=C\c1cc2cc(Cl)ccc2nc1Cl`, the MIC50 in data set [1] was determined as 27.8 µg/mL (≈ 54 µM). In data set [1], this molecule gave an MIC90 of over 30 µg/mL. Besides, the inhibition of growth at 30 µg/mL in data set [2] is 53.8%. Moreover, the inhibition of growth at 10 µg/mL in data set [3] was determined as 24.5%. Moreover, the inhibition of growth at 3 µg/mL in data set [4] was found to be 23.7%. In addition, the inhibition at 48 h, 30 ug/ml is 50% in data set [5], -12% in [8] and -14.5% in [11]. In addition, the inhibition at 48 h, 10 ug/ml in data set [6] is 22.8%; in data set [9], 0%; in data set [12] it was -22.2%. The inhibition at 48 h, 3 ug/ml in data set [7] was 14.3%; in [10] it was 2.3%; in data set [13], -18.3%.
The molecule `Cc1cccc2cc(/C=C3\CN(C)C/C(=C\c4cc5cccc(C)c5nc4Cl)C3=O)c(Cl)nc12` returned an MIC50 in data set [1] of 27 µg/mL (≈ 55.3 µM). For the same molecule, the MIC90 in [1] was over 30 µg/mL. In addition, in [2], the inhibition of growth at 30 µg/mL came to 51.5%. Moreover, the inhibition of growth at 10 µg/mL in data set [3] stood at 15.3%. In addition, in data set [4], the inhibition of growth at 3 µg/mL came out at 22.4%. Also, the results for the inhibition at 48 h, 30 ug/ml in [5], in data set [8] and in data set [11] were 0%, -20.4% and 1.6%, respectively. Besides, the inhibition at 48 h, 10 ug/ml in data set [6] is 0%; in [9], 0%; in data set [12], 4.1%. Besides, the inhibition at 48 h, 3 ug/ml in data set [7] is 0%; in data set [10] it was -11%; in [13], -4.3%.
Molecule `Cc1ccc2nc(Cl)c(/C=C3\CN(C)C/C(=C\c4cc5cc(C)ccc5nc4Cl)C3=O)cc2c1` showed an MIC50 in [1] of over 30 µg/mL. Besides, the MIC90 in data set [1] was over 30 µg/mL. In addition, the inhibition of growth at 30 µg/mL in [2] turned out to be 36.8%. In data set [3], the inhibition of growth at 10 µg/mL came to 15.6%. For the same molecule, the inhibition of growth at 3 µg/mL in data set [4] is -18.6%. Further, the inhibition at 48 h, 30 ug/ml in data set [5] was 44.8%; in [8], 0%; in data set [11], 16.5%. The figures for the inhibition at 48 h, 10 ug/ml in data set [6], in data set [9] and in [12] were 18.7%, 0% and 10.5%, respectively. Besides, the inhibition at 48 h, 3 ug/ml in [7] was 1.7%; in data set [10], 0%; in [13], 12.5%.
In data set [1], `CN1C/C(=C\c2cc3cc(F)ccc3nc2Cl)C(=O)/C(=C/c2cc3cc(F)ccc3nc2Cl)C1` came in with an MIC50 of over 30 µg/mL. Further, the MIC90 in data set [1] was over 30 µg/mL. Moreover, the inhibition of growth at 30 µg/mL in data set [2] amounted to 34.1%. Further, the inhibition of growth at 10 µg/mL in data set [3] came out at 14.7%. Besides, the inhibition of growth at 3 µg/mL in data set [4] came out at 39.7%. Moreover, the inhibition at 48 h, 30 ug/ml was 32.3% in data set [5], 0% in data set [8] and 12.7% in [11]. Further, the inhibition at 48 h, 10 ug/ml in data set [6] was -0.6%; in data set [9] it was 0%; in [12], 10.3%. The inhibition at 48 h, 3 ug/ml is 7.8% in data set [7], 0% in data set [10] and -0.4% in data set [13].
`COc1ccc2nc(Cl)c(/C=C3\CN(C)C/C(=C\c4cc5cc(OC)ccc5nc4Cl)C3=O)cc2c1` registered an MIC50 in [1] of over 30 µg/mL. The MIC90 in data set [1] is over 30 µg/mL. Further, the inhibition of growth at 30 µg/mL in data set [2] is -0.8%. Also, the inhibition of growth at 10 µg/mL in data set [3] was -5.8%. Moreover, in data set [4], the inhibition of growth at 3 µg/mL turned out to be 52%. Moreover, the values for the inhibition at 48 h, 30 ug/ml in data set [5], in data set [8] and in [11] were 39%, 0% and 10.2%, respectively. Also, the inhibition at 48 h, 10 ug/ml in [6] is -7.4%; in data set [9], 0%; in data set [12] it was 12.2%. In addition, the inhibition at 48 h, 3 ug/ml is -7.1% in data set [7], 0% in data set [10] and -2.1% in [13].
As to `NC[C@H]1O[C@H](O[C@H]2[C@H](O)[C@@H](O[C@H]3O[C@H](CO)[C@@H](O)[C@H](N)[C@H]3O)[C@H](N)C[C@@H]2N)[C@H](O)[C@@H](O)[C@@H]1O` [KANAMYCIN], in data set [14], the MIC50 is over 30 µg/mL and the MIC90 was found to be 16 µg/mL (≈ 33 µM).
